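The compound was tested at five concentrations on cells cultured in 96-well plates, with a 48-hour exposure period. Abbreviation: GI50, concentration required for 50% inhibition of growth.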 Activity calls are given as the source filed them. Rule as the data show it: active = GI50 up to about 1.1 µM and inactive = higher.
Legend:
Assay in all cases: NCI tumour cell line growth inhibition, 48 h
BT-549 = system: BT-549
CAKI-1 = system: CAKI-1
COLO 205 = system: COLO 205
DU-145 = system: DU-145
EKVX = system: EKVX
HCT-116 = system: HCT-116
HCT-15 = system: HCT-15
M14 = system: M14
MCF7 = system: MCF7
MDA-MB-231 = system: MDA-MB-231
MOLT-4 = system: MOLT-4
SF-539 = system: SF-539
SK-MEL-28 = system: SK-MEL-28
SK-OV-3 = system: SK-OV-3
SN12C = system: SN12C
SNB-75 = system: SNB-75
TK-10 = system: TK-10
U-251 = system: U-251
RPMI-8226 = system: RPMI-8226

With `O=C(Cc1csc(N/N=C2\C(=O)Nc3ccccc32)n1)Nc1ccccc1` as the compound, how does the GI50 (BT-549) read?
Its GI50 is 41.7 µM (inactive).

What about the GI50 (CAKI-1) of the same compound?
Its GI50 is 23.3 µM (inactive).

What about the GI50 (COLO 205) of the same compound?
Its GI50 is 55.1 µM (inactive).

What about the GI50 (DU-145) of the same compound?
The GI50 was 24.9 µM (inactive).

And the GI50 (EKVX)?
Its GI50 is 19.9 µM (inactive).

And the GI50 (HCT-116)?
Its GI50 is 21.4 µM (inactive).

And the GI50 (HCT-15)?
The GI50 was 38.5 µM.

What about the GI50 (M14) of the same compound?
Its GI50 is 38.3 µM (inactive).

What about the GI50 (MCF7) of the same compound?
Its GI50 is 54.3 µM (inactive).

What about the GI50 (MDA-MB-231) of the same compound?
The GI50 was 28.8 µM (inactive).

What about the GI50 (MOLT-4) of the same compound?
The GI50 was 42.5 µM (inactive).

And the GI50 (SF-539)?
The GI50 was 26.4 µM (inactive).

And the GI50 (SK-MEL-28)?
Its GI50 is 21 µM (inactive).

What about the GI50 (SK-OV-3) of the same compound?
The GI50 was 30.3 µM (inactive).

What about the GI50 (SN12C) of the same compound?
Its GI50 is 36.6 µM (inactive).

And the GI50 (SNB-75)?
Its GI50 is 28.5 µM (inactive).

And the GI50 (TK-10)?
Its GI50 is 44.1 µM (inactive).

And the GI50 (U-251)?
Its GI50 is 22.6 µM (inactive).

With `COc1cc2oc(-c3ccc4c(c3)OCO4)c(OC)c(=O)c2c(OC)c1OC` as the compound, how does the GI50 (BT-549) read?
Its GI50 is 38.7 µM (inactive).

And the GI50 (CAKI-1)?
Its GI50 is 19.1 µM (inactive).

And the GI50 (COLO 205)?
The GI50 was > 100 µM (inactive).

And the GI50 (DU-145)?
The GI50 was > 100 µM (inactive).

What about the GI50 (EKVX) of the same compound?
Its GI50 is 66.5 µM (inactive).

What about the GI50 (HCT-116) of the same compound?
The GI50 was > 100 µM (inactive).

And the GI50 (HCT-15)?
The GI50 was over 100 µM.

And the GI50 (M14)?
Its GI50 is > 100 µM (inactive).

And the GI50 (MCF7)?
Its GI50 is > 100 µM (inactive).

What about the GI50 (MDA-MB-231) of the same compound?
The GI50 was > 100 µM (inactive).

What about the GI50 (MOLT-4) of the same compound?
The GI50 was > 100 µM (inactive).

What about the GI50 (SF-539) of the same compound?
The GI50 was 45.2 µM (inactive).

And the GI50 (SK-MEL-28)?
The GI50 was > 100 µM (inactive).

What about the GI50 (SK-OV-3) of the same compound?
The GI50 was 44.7 µM (inactive).

And the GI50 (SN12C)?
The GI50 was > 100 µM (inactive).

What about the GI50 (SNB-75) of the same compound?
The GI50 was 27.2 µM (inactive).

What about the GI50 (TK-10) of the same compound?
Its GI50 is 32.8 µM (inactive).

What about the GI50 (U-251) of the same compound?
The GI50 was 38.2 µM (inactive).

Which results are given for `O=C1c2c(Br)sc(Br)c2C(NC(=O)C(F)(F)F)C1O` (stereo not drawn)?
GI50 (BT-549): 19.4 µM (inactive); GI50 (CAKI-1): 17.5 µM (inactive); GI50 (COLO 205): 16.8 µM (inactive); GI50 (DU-145): 20.5 µM (inactive); GI50 (EKVX): 19.5 µM (inactive); GI50 (HCT-116): 18.1 µM (inactive); GI50 (HCT-15): 16.7 µM; GI50 (M14): 20.6 µM (inactive); GI50 (MCF7): 22.8 µM (inactive); GI50 (MDA-MB-231): 19.2 µM (inactive); GI50 (MOLT-4): 31.3 µM (inactive); GI50 (SF-539): 15.7 µM (inactive); GI50 (SK-MEL-28): 21.8 µM (inactive); GI50 (SK-OV-3): 19.3 µM (inactive); GI50 (SN12C): 18.7 µM (inactive); GI50 (SNB-75): 27.9 µM (inactive); GI50 (TK-10): > 100 µM (inactive); GI50 (U-251): 19.5 µM (inactive)

`O=C1Nc2ccc(Cl)cc2C(=O)N2CCC[C@@H]12` was tested. Which GI50 (BT-549) did it give?
Its GI50 is > 100 µM (inactive).

What about the GI50 (CAKI-1) of the same compound?
Its GI50 is > 100 µM (inactive).

And the GI50 (COLO 205)?
The GI50 was > 100 µM (inactive).

What about the GI50 (DU-145) of the same compound?
Its GI50 is > 100 µM (inactive).

And the GI50 (EKVX)?
Its GI50 is > 100 µM (inactive).

And the GI50 (HCT-116)?
Its GI50 is > 100 µM (inactive).

And the GI50 (HCT-15)?
Its GI50 is over 100 µM.

What about the GI50 (M14) of the same compound?
The GI50 was > 100 µM (inactive).

What about the GI50 (MCF7) of the same compound?
Its GI50 is > 100 µM (inactive).

And the GI50 (MDA-MB-231)?
Its GI50 is > 100 µM (inactive).

And the GI50 (MOLT-4)?
Its GI50 is > 100 µM (inactive).

What about the GI50 (RPMI-8226) of the same compound?
Its GI50 is > 100 µM (inactive).

What about the GI50 (SK-MEL-28) of the same compound?
The GI50 was > 100 µM (inactive).

And the GI50 (SK-OV-3)?
The GI50 was > 100 µM (inactive).

What about the GI50 (SN12C) of the same compound?
Its GI50 is > 100 µM (inactive).

What about the GI50 (SNB-75) of the same compound?
The GI50 was > 100 µM (inactive).

What about the GI50 (TK-10) of the same compound?
Its GI50 is > 100 µM (inactive).

What about the GI50 (U-251) of the same compound?
The GI50 was > 100 µM (inactive).

With `CC(C)(C)OC(=O)NC(CSCc1ccc(C(=O)c2ccccc2)cc1)C(=O)N1CCN(CCCCN2c3ccccc3Sc3cc(N=[N+]=[N-])ccc32)CC1` (stereo not drawn) as the compound, how does the GI50 (BT-549) read?
The GI50 was > 100 µM (inactive).

And the GI50 (CAKI-1)?
Its GI50 is > 100 µM (inactive).

What about the GI50 (COLO 205) of the same compound?
Its GI50 is > 100 µM (inactive).

What about the GI50 (DU-145) of the same compound?
The GI50 was > 100 µM (inactive).

And the GI50 (EKVX)?
Its GI50 is > 100 µM (inactive).

What about the GI50 (HCT-116) of the same compound?
Its GI50 is > 100 µM (inactive).

What about the GI50 (HCT-15) of the same compound?
Its GI50 is over 100 µM.

And the GI50 (M14)?
Its GI50 is > 100 µM (inactive).

What about the GI50 (MCF7) of the same compound?
Its GI50 is > 100 µM (inactive).

And the GI50 (MDA-MB-231)?
Its GI50 is > 100 µM (inactive).

What about the GI50 (MOLT-4) of the same compound?
Its GI50 is > 100 µM (inactive).

What about the GI50 (SF-539) of the same compound?
Its GI50 is > 100 µM (inactive).

And the GI50 (SK-MEL-28)?
Its GI50 is > 100 µM (inactive).

What about the GI50 (SK-OV-3) of the same compound?
Its GI50 is > 100 µM (inactive).

What about the GI50 (SN12C) of the same compound?
The GI50 was > 100 µM (inactive).

What about the GI50 (SNB-75) of the same compound?
The GI50 was 58.7 µM (inactive).

What about the GI50 (TK-10) of the same compound?
The GI50 was > 100 µM (inactive).

And the GI50 (U-251)?
Its GI50 is > 100 µM (inactive).

`O=C1/C(=C/c2ccccc2)N=C(c2ccccc2)N1n1c(-c2ccccc2)nc2ccccc2c1=O` was tested. Which GI50 (BT-549) did it give?
Its GI50 is 31.6 µM (inactive).

And the GI50 (COLO 205)?
Its GI50 is > 100 µM (inactive).

What about the GI50 (DU-145) of the same compound?
Its GI50 is 83 µM (inactive).

What about the GI50 (EKVX) of the same compound?
Its GI50 is 48.6 µM (inactive).

What about the GI50 (HCT-116) of the same compound?
Its GI50 is 53 µM (inactive).

What about the GI50 (HCT-15) of the same compound?
The GI50 was 72.4 µM.

And the GI50 (M14)?
Its GI50 is > 100 µM (inactive).

What about the GI50 (MCF7) of the same compound?
Its GI50 is 34 µM (inactive).

What about the GI50 (MDA-MB-231) of the same compound?
The GI50 was > 100 µM (inactive).

What about the GI50 (MOLT-4) of the same compound?
Its GI50 is 30.6 µM (inactive).

And the GI50 (RPMI-8226)?
The GI50 was 28.8 µM (inactive).

What about the GI50 (SF-539) of the same compound?
Its GI50 is 83 µM (inactive).

And the GI50 (SK-MEL-28)?
The GI50 was 74.3 µM (inactive).

And the GI50 (SK-OV-3)?
The GI50 was > 100 µM (inactive).

What about the GI50 (SN12C) of the same compound?
Its GI50 is > 100 µM (inactive).

What about the GI50 (SNB-75) of the same compound?
Its GI50 is > 100 µM (inactive).

And the GI50 (TK-10)?
The GI50 was > 100 µM (inactive).

What about the GI50 (U-251) of the same compound?
Its GI50 is 41.8 µM (inactive).
